According to publication PMC11440508, “Dually Labeled Neurotensin NTS1R Ligands for Probing Radiochemical and Fluorescence-Based Binding Assays” (Journal of Medicinal Chemistry, 2024):
“And” between values parts separate entries of the source, which are not always exact repeats. Equal values may be shown once. “Also recorded” adds a separate entry of the source.

Experiments:
[1] = Chemical stability in PBS (pH 7.4); assay type: physicochemical; conditions: PBS pH 7.4, room temperature, up to 48 h, RP-HPLC
Procedure: The chemical stability of peptides 13 and 18 was investigated in PBS (adjusted to pH 7.4) at 22 °C in the dark. The incubation was started by the addition of 15 μL of a 1 mM stock solution (solvent: DMSO) to 135 μL of PBS to yield a concentration of 100 μM. After periods of 0, 6, 24, and 48 h, an aliquot (25 μL) was removed and added to 25 μL of acetonitrile/0.04% aqueous TFA 1:9 v/v to obtain a peptide solution with a concentration of 50 μM. 20 μL of this solution were subjected to analytical RP-HPLC analysis using the same system and conditions as described under Analytical HPLC with the following gradient: 0–14 min: acetonitrile/0.04% aqueous TFA 10:90–30:70, 14–15 min: 30:70–95:5, 15–20 min: 95:5 (isocratic). A 1:1 mixture of PBS and acetonitrile/0.04% aqueous TFA 1:9 v/v (20 μL) was analyzed to obtain the blank chromatogram.

[2] = Recovery from human plasma/PBS 1:2 v/v; assay type: in vitro ADME; design: recovery compd. (%): dose or concentration left out as unconfirmed; conditions: for recovery compd. (%): human plasma/PBS 1:2 v/v
Procedure: The proteolytic stabilities of 13 and 18 were investigated in human blood plasma/PBS (136.9 mM NaCl, 2.68 mM KCl, 5.62 mM Na2HPO4, 1.09 mM NaH2PO4, and 1.47 mM KH2PO4, pH 7.4) 1:2 v/v according to a described procedure[38] with the following modifications: 5 mM stock solutions in EtOH/10 mM aqueous HCl 1:1 v/v were used for the addition of the peptides to plasma/PBS 1:2 v/v. As the RP-HPLC purity of 1-methyl-D-Trp, used as internal standard (IS), was <95%, the compound was purified by preparative HPLC to give a purity of >99%. […] Samples were analyzed using the same RP-HPLC system and conditions as described under Analytical HPLC with the following gradient: 0–6 min: acetonitrile/0.04% aqueous TFA 10:90–21:79, 6–12 min: 21:79–40:60, 12–13 min: 40:60–95:5, 13–16 min: 95:5 (isocratic). Data analysis was based on UV detection at 220 nm. Reference samples, representing 100% recovery, were prepared in quadruplicate. Recovery ratios were obtained by dividing the recovery of the peptide by the recovery of IS for each individual sample (n = 4). The obtained recoveries and the recovery ratios are summarized in Table S2, Supporting Information.

NTS1R = NTS1R (Homo sapiens, UniProt P30989); experiment: High-content imaging (HCI) association and dissociation kinetics, adherent CHO-hNTS1R cells; assay type: binding; conditions: for koff: 23 °C, read-out: koff [min^–1] (converted); for kon: calculated from kobs, koff and ligand concentration, read-out: kon [min^–1 nM^–1] (converted)
Sequence of NTS1R (P30989 whole entry): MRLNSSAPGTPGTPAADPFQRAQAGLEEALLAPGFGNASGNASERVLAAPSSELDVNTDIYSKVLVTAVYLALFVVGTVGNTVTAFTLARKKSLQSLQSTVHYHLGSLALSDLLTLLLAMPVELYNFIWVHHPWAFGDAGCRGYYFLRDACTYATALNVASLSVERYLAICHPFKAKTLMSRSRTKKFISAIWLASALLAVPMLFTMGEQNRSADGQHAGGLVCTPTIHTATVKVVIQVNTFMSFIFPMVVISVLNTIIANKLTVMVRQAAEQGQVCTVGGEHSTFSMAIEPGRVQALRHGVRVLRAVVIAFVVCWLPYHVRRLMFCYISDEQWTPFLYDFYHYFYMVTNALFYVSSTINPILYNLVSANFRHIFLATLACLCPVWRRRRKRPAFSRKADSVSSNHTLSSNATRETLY
Procedure: CHO-hNTS1R or HT-29 cells were seeded one day prior to the experiment into the inner 60 wells of a black clear-bottom 96-well plate (Greiner 655090, Greiner Bio-One) at a concentration of 25,000 cells/well and 35,000 cells/well, respectively. On the day of the assay, the medium was removed by suction and the cells were washed with DPBS1 (50 μL). After this step, DPBS1 (180 or 200 μL) containing the nuclear dye Hoechst H33342 (2 μg/mL) was added. This solution also contained the fluorescent ligand (kinetic studies, competition binding experiments), or the fluorescent ligand was added separately (saturation binding experiments). In the case of competition binding experiments, the nonlabeled receptor ligands were also added separately (details given below). All samples were incubated at 23 ± 1 °C in the dark under gentle shaking (incubation times are specified below). The final volume per well was 200 μL. Shortly before subjecting the plate to the plate reader for image acquisition, the liquid was removed by suction and DPBS1 (100 μL) was added. Images were acquired using an IX Micro plate reader (Molecular Devices, Sunnyvale, CA) using a 20× Plan Fluor ELWD objective, a xenon lamp light source and DAPI and TRITC excitation/emission filter cubes for imaging nuclear and fluorescent ligand staining, respectively. […] Two sites/well were measured throughout. Images were analyzed by granularity analysis (2–3 μm diameter granules; MetaXpress 5.3, Molecular Devices, San Diego, CA) and the integrated intensity (pixel intensity × granule area) per cell was used as the raw measurement of fluorescent ligand binding. […]
After the initial washing step, 200 μL of DPBS1 containing the fluorescent ligand 13 or 18 (2.5 nM) and DAPI were added to determine total binding. […] The samples of the different time points were prepared in reversed order (longest incubation time first, shortest incubation time last) so that the cells of all samples could be washed and measured approximately at the same time (note: the measurement time for 60 wells was <5 min). […] Specific binding data, obtained by subtracting triplicate mean values of unspecific binding from triplicate mean values of total binding, were plotted against the time and analyzed by a three-parameter equation describing an exponential rise to a maximum (one-phase association, Y0 constrained to zero, GraphPad Prism 5) to yield the observed association rate constant kobs. […]
After initial washing of the cells, 200 μL of DPBS1 containing the fluorescent ligand 13 or 18 (2.5 nM) and DAPI were added to the wells (determination of total binding). […] The plate was directly subjected to the plate reader (no washing step). […]

Row | Compound | chemical stability in PBS [1] | recovery compd. (%) ([2]; individual experiments) | koff (NTS1R) | kon (NTS1R) | mean recovery ratio ± SEM ([2]; four independent experiments) | ratio of peptide recovery over recovery of internal standard ([2]; individual experiments, internal standard 1-methyl-D-tryptophan)
1 | CCC(=O)NCCCCNC(=O)N=C(N)NCCC[C@H](NC(=O)[C@@H]1CCCN1C(=O)[C@@H](NC(=O)CCc1cn(CCCNC(=O)c2ccc(-c3c4ccc(=[N+](C)C)cc-4oc4cc(N(C)C)ccc34)c(C(=O)[O-])c2)nn1)C1CCNCC1)C(=O)N[C@@H](CCCNC(=N)N)C(=O)N1CCC[C@H]1C(=O)N[C@@H](Cc1ccc(O)cc1)C(=O)N[C@H](C(=O)N[C@@H](CC(C)C)C(=O)O)[C@@H](C)CC [Compound 13, N^α-(3-(1-N-((1-Carboxylato-2-(6-(dimethylamino)-3-(dimethyliminio)-3H-xanthen-9-yl)phen-5-yl)1-oxomethyl)aminoprop-3-yl-1H-1,2,3-triazol-4-yl)propanoyl)-2-(piperidin-4-yl)-Gly-Pro-N^ω-[(4-(N-propanoyl)aminobutyl)aminocarbonyl]Arg-Arg-Pro-Tyr-Ile-Leu Tris(hydrotrifluoroacetate)] | high stability; also recorded: very slow degradation observable after 24 h | 75% and 102% and 104% | 0.000733 s⁻¹ | 267000 M⁻¹ s⁻¹ | – | –
2 | CCC(=O)NCCCCNC(=O)NC(=N)NCCC[C@H](NC(=O)[C@@H]1CCCN1C(=O)[C@@H](NC(=O)CCc1cn(CCCNC(=O)CCC#Cc2ccc3c(c2)C(C)(C)C2=C4C=C5C6=[N+](CCC5OC4CCN23)c2ccc(S(=O)(=O)[O-])cc2C6(C)C)nn1)C1CCNCC1)C(=O)N[C@@H](CCCNC(=N)N)C(=O)N1CCC[C@H]1C(=O)N[C@H](C(=O)N[C@H](C(=O)N[C@@H](CC(C)C)C(=O)O)[C@@H](C)CC)C(C)(C)c1ccc(O)cc1 (stereo partly drawn) [Compound 18, N^α-(3-(N-(1-(8-Sulfonato-5,5,27,27-tetramethyl-16-oxa-20-aza-12-azoniaheptacyclo[15.11.0.03,15.04,12.06,11.020,28.021,26]octacosa-1(28),2,4(12),6(11),7,9,21(26),22,24-nonaen-24-yl)-5-oxopentyn-5-yl)-1-aminoprop-3-yl-1H-1,2,3-triazol-4-yl)propanoyl)-2-(piperidin-4-yl)-Gly-Pro-N^ω-[(4-(N-propanoyl)aminobutyl)aminocarbonyl]Arg-Arg-Pro-β,β-dimethyl-L-Tyr-Ile-Leu Tris(hydrotrifluoroacetate)] | highly stable over 48 h; also recorded: no decomposition | 98% and 72% and 65% and 70% | 0.00085 s⁻¹ | 135000 M⁻¹ s⁻¹ | 0.99 ± 0.02 | 1.01 (2×) and 1.03 and 0.91
